Source: patent publication US12076368B2, “Treatment of liver, biliary tract and pancreatic disorders” (Novozymes A/S, priority 2016, dated 2024)
Positions of bridges follow the written chain, without caps; N, C: chain ends. No end group written: not given here.

Legend:
[1] = degradation by dipeptidyl peptidase-4; cited from earlier work
isolated hepatocytes = details: Liu et al. (2008); cited from earlier work
[2] = Pharmacokinetics of hBD-2 after single oral gavage (Example 6); type: in vivo, NMRI mice; details: oral dosing of 4 mg/kg in mice
Procedure: FIG. 35. Pharmacokinetic data following oral administration of 4 mg/kg hBD-2 to female NMRI mice. […] The results are given as group mean+/−SEM.
21 female NMRI mice were dosed by oral gavage 5 ml/kg using a gavage tube and a 1 ml syringe according to the individual body weight obtained on the day of dosing. Urine was strived sampled at random time points by gently massaging the inguinal area of the abdomen. The first blood sample was taken using a submandibular sampling method. The second blood sample was collected from Isoflurane anaesthetised mice. Intestinal samples were taken after euthanasia. The abdomen of each mouse was opened and three sections of the intestines were sampled.

[3] = Pharmacokinetics of hBD-2 and hBD-2-albumin fusions after subcutaneous or intravenous administration (Example 7); type: in vivo, NMRI female mice; details: hBD-2 1 mg/kg
Procedure: FIG. 36. Pharmacokinetic data for hBD-2 following subcutaneous (SC) and intravenous (IV) administration of 1 mg/kg respectively. […] The different curves represent different experiments and detection methods (HPLC and ELISA).
FIG. 37. Pharmacokinetic data for “hBD-2-albumin fusion N-terminal” following subcutaneous and intravenous administration of 16.5 mg/kg respectively. […] The results are the mean of 4 mice/sampling time+/−SD.
FIG. 38. Pharmacokinetic data for “hBD-2-albumin fusion C-terminal” following subcutaneous and intravenous administration of 16.5 mg/kg respectively. […] The results are the mean of 4 mice/sampling time+/−SD.
The animals were dosed 10 ml/kg of stock concentration of 1.65 mg/ml according to the individual body weight (300 μL for a 30 gram mouse). First blood sample was taken using a submandibular sampling method and the second following Isoflurane anaesthesia and euthanasia.

[4] = test system: Dextran Sodium Sulphate (DSS) Induced Colitis Model in Mice; test: Acute 10-day DSS induced colitis model, hBD-2-albumin fusion N-terminal (Example 8); type: in vivo; details: fusion iv or sc daily; DEX 1 mg/kg sc OD
Procedure: “hBD-2-albumin N-terminal” was administered intravenously via the tail vein or subcutaneously with the use of a sterile 25 G needle in a dosing volume of 10 ml/kg body weight. The animals received 1 dose daily for 10 executive days.

[5] = test system: Dextran Sodium Sulphate (DSS) Induced Colitis Model in Mice; test: Acute 10-day DSS induced colitis model, hBD-2-albumin fusion C-terminal (Example 9); type: in vivo; details: Pred 1 mg/kg orally daily
Procedure: “hBD-2-albumin C-terminal” was administered intravenously via the tail vein or subcutaneously with the use of a sterile 25 G needle in a dosing volume of 10 ml/kg body weight. The animals received 1 dose daily for 10 […] days. The active control Prednisolone (Pred) was given orally by gavage at a dose of 1 mg/kg in a dosing volume of 10 ml/kg body weight OD.

C57Bl/6J DIO male mice = test: GLP-1 analog (liraglutide) treatment of high fat diet fed DIO mice (Example 5); type: in vivo; details: 0.2 mg/kg BID subcutaneously, 4 weeks
Text: FIG. 31: Schematic outline of the experimental set up for investigating the effects of a GLP-1 analog (Liraglutid) on mouse gut inflammation and microbiota. At week −40, the C57/BI/6J DIO mice arrived. The mice were fed a high fat diet 60% fat, SSNIFF (Diet #D12492) or purina chow for 38 weeks to achieve an average body weight of 55 gram. From week −2 the mice were single housed. Faecal samples were collected on day −1 and 27 for 16S RNA analysis. Samples from ilium were collected 2 cm from caecum at day 28.
4 weeks old C57Bl/6J DIO male mice were fed a high fat diet (HFD 60% fat, SSNIFF (Diet #D12492)) or purina chow for […]. The HFD fed group had reached an average weight of approximately 55 grams by start of intervention. The mice were group housed 10 per cage until week −2. From week −2 the mice were single housed throughout the study. Feed intake was registered daily just before lights were turned off at 3 pm. Individual mice were subjected to experimental procedures in altered order both group and cage wise. Mice were kept at room temperature under a 12-hour light/dark cycle at SPF standard conditions.
Mice were fed either a high fat diet (HFD) or a low fat (LF) control diet. The HFD contained 2 subgroups; 1 GLP-1 analog and 1 standard HFD without supplementation of GLP-1 analog. The GLP-1 analog liraglutide was dissolved in PBS and 0.1% BSA was added. The GLP-1 analog was administered at 0.2 mg/kg BID subcutaneously.

[6] = compared to untreated HFD reference group

## Glucagon-like peptide-1 [GLP-1]
[1]
  half-life in the circulation: less than 2 minutes

## human neutrophil peptide 2 (CYCRIPACIAGERRYGTCIYQGRLWAFCC; listed as Homo sapiens) [HNP-2, alpha defensin produced by leucocytes]
Isolated hepatocytes
  glycogenolysis and gluconeogenesis: able to inhibit glycogenolysis and gluconeogenesis in isolated hepatocytes

## GIGDPVTCLKSGAICHPVFCPRRYKQIGTCGLPGTKCCKKP (disulfide 8-37, 15-30, 20-38) [hBD-2, human beta defensin 2]
[2]
  systemic availability after oral dosing: not systemically available
[3]
  renal clearance: 10 mL/min

## C[C@@H]1C[C@H]2[C@@H]3CCC4=CC(=O)C=C[C@]4(C)[C@@]3(F)[C@@H](O)C[C@]2(C)[C@@]1(O)C(=O)CO [DEX, Dexamethasone]
[4]
  body weight: very significant decrease in body weight from day 5 onwards
  histological damage of colonic tissue: failed to significantly reduce histological injury

## C[C@]12C=CC(=O)C=C1CC[C@@H]1[C@@H]2[C@@H](O)C[C@@]2(C)[C@H]1CC[C@]2(O)C(=O)CO [Pred, Prednisolone]
[5]
  histological injury, proximal part of the colon: failed to significantly reduce histological injury in the proximal part of the colon
[5]; p<0.01
  histological injury, distal colon: did reduce the injury in the distal colon
[5]; p<0.05
  DAI: significant inhibition of the DAI on day 9

## CCCCCCCCCCCCCCCC(=O)N[C@@H](CCC(=O)NCCCC[C@H](NC(=O)[C@H](C)NC(=O)[C@H](C)NC(=O)[C@H](CCC(N)=O)NC(=O)CNC(=O)[C@H](CCC(=O)O)NC(=O)[C@H](CC(C)C)NC(=O)[C@H](Cc1ccc(O)cc1)NC(=O)[C@H](CO)NC(=O)[C@H](CO)NC(=O)[C@@H](NC(=O)[C@H](CC(=O)O)NC(=O)[C@H](CO)NC(=O)[C@@H](NC(=O)[C@H](Cc1ccccc1)NC(=O)[C@@H](NC(=O)CNC(=O)[C@H](CCC(=O)O)NC(=O)[C@H](C)NC(=O)[C@@H](N)Cc1cnc[nH]1)[C@@H](C)O)[C@@H](C)O)C(C)C)C(=O)N[C@@H](CCC(=O)O)C(=O)N[C@@H](Cc1ccccc1)C(=O)N[C@H](C(=O)N[C@@H](C)C(=O)N[C@@H](Cc1c[nH]c2ccccc12)C(=O)N[C@@H](CC(C)C)C(=O)N[C@H](C(=O)N[C@@H](CCCNC(=N)N)C(=O)NCC(=O)N[C@@H](CCCNC(=N)N)C(=O)NCC(=O)O)C(C)C)[C@@H](C)CC)C(=O)O [GLP-1 analog, liraglutide]
C57Bl/6J DIO male mice
  liver weight at termination vs chow fed mice: not statistically significantly different
C57Bl/6J DIO male mice; [6]
  body weight lost: 25-30%
  body weight lost (average): 15 gram
C57Bl/6J DIO male mice; p<0.01
  plasma cholesterol level vs HFD reference group: statistically significantly lower

## human neutrophil peptide 1 [HNP-1]
Isolated hepatocytes
  glycogenolysis and gluconeogenesis: able to inhibit glycogenolysis and gluconeogenesis in isolated hepatocytes
